Measured values from US20260199213A1, “PEPTIDE HAVING ACTIVITY OF IMPROVING STATE OF SKIN, AND USE THEREOF” (CAREGEN CO., LTD., priority 2022, published 2026).

How the values were obtained:
Assay type in all cases: cell-based
elastin = assay: Elastin expression by RT-PCR in NIH3T3 cells
Experimental: In this example, the aim was to confirm the effect of the peptide according to an example on improving endogenous skin aging, including improvement of wrinkles and enhancement of elasticity, etc., by evaluating the expression levels of collagen type 1 (Col1a1), fibronectin, elastin, and hyaluronic acid, which are known components of the dermis.
Specifically, NIH3T3 cells were seeded in a 6-well plate at a density of 3×10^5 cells/well and cultured for 24 hours. Next, the cells were washed once with serum-free DMEM media, and 10 μM, 50 μM or 1000 μM of a peptide consisting of an amino acid sequence of SEQ ID NO: 1 was dispensed into 1 mL of the serum-free media, and cultured in a CO2 incubator at 37° C. for 24 hours. Next, the culture was washed twice with PBS, and RNA was isolated from the culture using easy blue (iNtRON, Cat. No.: 17061, Korea). Next, using an RT kit (Enzynomics, Cat. NO.: RT200, Korea), the isolated RNA was reverse transcribed to synthesize the respective cDNA. Next, using the synthesized 1 ug cDNA, primers for Colla1, fibronectin, or elastin, and a PCR kit (Enzynomics, Cat. No.: P581T, Korea), polymerase chain reaction (PCR) was performed. Meanwhile, in this example, an untreated group was used as a control group, and a group to which […] was added was used as a positive control group, the nucleotide sequences of the primers used in this example are shown in Table 2 below.
In this example, the aim was to more specifically compare the effects of peptides according to an embodiment on improving intrinsic skin aging. To this end, a peptide consisting of an amino acid sequence of SEQ ID NO: 2, 3, or 4 having a sequence similar to a peptide according to an embodiment was set as a comparison group, and the expression levels of fibronectin and elastin were evaluated and compared in the same manner as in Example 2-1. […]

hyaluronic acid = assay: Hyaluronic acid level by HA ELISA in HaCaT cells; settings: 10 μM, 50 μM or 1000 μM peptide, 72 hours
Experimental: Additionally, to evaluate the expression levels of procollagen I alpha and hyaluronic acid at the protein level, NIH3T3 cells or HaCaT cells were seeded at a density of 1×10^4 cells/well in 24-well plates and then cultured for 24 hours. Next, the cells were washed once with serum-free DMEM media, and 10 μM, 50 μM or 1000 μM of the peptide consisting of the amino acid sequence of SEQ ID NO: 1 was dispensed into 2 mL of the serum-free media, and cultured in a CO2 incubator at 37° C. for 72 hours. Next, the culture was centrifuged to settle the suspended matter, and the supernatant was transferred to an e-tube. Next, Collagen ELISA (abcam, Cat No.: ab210579, UK) and HA ELISA (ECHELON biosciences, Cat No.: K-1200, USA) were performed on the centrifuged culture. Meanwhile, in this example, an untreated group was used as the control group, and a group to which TGF-β1 or EGF was added was used as the positive control group.

[1] = test system: reactive oxygen species in NIH3T3 cells; assay: Reactive oxygen species increased by ultraviolet rays in NIH3T3 cells (DCF-DA, flow cytometry); settings: fibroblasts (NIH3T3); 6 J/cm^2 UV; 10 μM, 50 μM or 1000 μM peptide; 24 hours
Experimental: In this example, the aim was to confirm the effect of the peptide according to an embodiment on the antioxidant effect in damaged skin, by evaluating the change in the level of reactive oxygen species in skin cells increased by ultraviolet irradiation.
Specifically, NIH3T3 cells or HaCaT cells were seeded in a 6-well plate at a density of 5×10^5 cells/well and cultured for 24 hours. Next, the cells were washed once with serum-free DMEM media, and 10 μM, 50 μM or 1000 μM of the peptide consisting of the amino acid sequence of SEQ ID NO: 1 was dispensed into 1 mL of the serum-free media, and cultured in a CO2 incubator at 37° C. for 1 hour. Next, the above culture was transferred to an e-tube, mixed with 1 ml of PBS, and dispensed into a well plate. Next, using a UV irradiator (VILBER LOURMAT, Cat No.: 3102-BSU, France), 6 J/cm^2 ultraviolet rays were irradiated to NIH3T3 cells, and 15 mJ/cm^2 ultraviolet rays were irradiated to HaCaT cells. Next, the PBS in the well plate was removed, 900 μL of the culture medium in which the peptides were dispensed was added, and the plate was cultured in a CO2 incubator at 37° C. for 24 hours. […] After washing the centrifuged cells with PBS, FL1 fluorescence values were measured through flow cytometry (FACS, BD, USA). […]

GPRGDP [SEQ ID NO: 1]
expression of elastin (elastin; 10 μM, 50 μM or 1000 μM peptide, 24 hours, PCR, vs untreated group): increased
expression of elastin (Example 2-2) (elastin; comparison experiment, FIG. 5 and FIG. 6): increased
elastin expression effect compared to the comparison group (elastin; vs peptides of SEQ ID NO: 2, 3, or 4 (50 μM, 100 μM)): superior
expression of hyaluronic acid at the protein level (hyaluronic acid): increased
level of reactive oxygen species increased by ultraviolet irradiation [1]: reduced
